According to PMC7956481, “Carrier-Free Immobilization of α-Galactosidase as Nano-Biocatalysts for Synthesizing Prebiotic α-Galacto-Oligosaccharides” (Molecules, 2021):

Tested on: T1, α-galactosidase
T1 construct: gene aglA; native extracellular enzyme; filtered culture supernatant used as crude enzyme, not purified
Experiment: p-nitrophenol release at […] nm, Michaelis-Menten fit (GraphPad Prism […])
Format: biochemical, Aspergillus niger
Conditions: free enzyme (crude culture supernatant); 50 mM acetate buffer pH 5.5; 37 °C; 10 min; 0.3 to 2.2 mM substrate

Question: For `O=[N+]([O-])c1ccc(O[C@H]2O[C@H](CO)[C@H](O)[C@H](O)[C@H]2O)cc1` [p-Nitrophenyl α-D-galactopyranoside], which Km is on record?
Answer: Its Km is 300 ± 20 µM.
